Assay results published in patent EP1889615A2, “Formulations for oral administration with a health promoting effect on the osteoarticular and muscleskeleton apparatus” (ROTTAPHARM S.P.A., priority 2006, dated 2008).

Experiments:
[1] = tested on: IL-1; assay: Human blood: LPS stimulated production (expression) of IL-1; type: cell-based
Procedure: (§1) 200 µl samples have been stimulated with 1 µg/ml of LPS for 24 hours at 37°C [Hartel et al. 2004], in the presence of the test products. The cytokines released into the plasma have been analysed using a multiple system for cytokines (Bio-Plex, Bio-Rad Laboratories, Milan, Italy) allowing the simultaneous determination of IL-1, TNFα and IL-10.

[2] = tested on: TNFα; assay: Human blood: LPS stimulated production (expression) of TNFα; type: cell-based
Procedure: as §1

[3] = tested on: TXB2; assay: Human blood: coagulation-induced thromboxane (TXB2) production, marker of platelet COX-1 activity; type: cell-based; conditions: for %Diff. vs control: TXB2
Procedure: The test products have been added to samples of human blood, collected from healthy volunteers, and then said samples allowed to coagulate by leaving to stand for 1 hour at 37°C. The thromboxane (TXB2) in the serum, a marker of platelet COX-1 activity (Panara et al. 1999], has been determined using a specific RIA method.

[4] = tested on: PGE2; assay: Human blood: production of PGE2 stimulated by 100 µg/ml LPS, marker of monocyte COX-2 activity; type: cell-based
Procedure: Human blood has been collected from health volunteers and made uncoagulable with 0.38% Na citrate. The test products have been added to 200 µl samples and then said samples stimulated with 100 µg/ml of LPS for 24 hours at 37°C. The PGE2 in the plasma, a marker of monocyte COX-2 activity [Panara et al. 1999], has been determined using a specific RIA method.

[5] = tested on: PGE2; assay: Rabbit chondrocytes: IL-1β-stimulated production of PGE2 (a COX-2 marker); type: cell-based, New Zealand white rabbits; conditions: for %Diff. vs control: PGE2, control = IL-1β
Procedure: Joint cartilage chondrocytes, obtained from New Zealand white rabbits, have been cultured using the technique described by Berenbaum [1994]. […] The test products have been added 20 minutes prior to stimulation. On completion of stimulation, the supernatant liquid has been collected and stored at -80°C until analysis. PGE2 in the culture medium has been measured using a radio-immunological method. The production of PGE2 in this model is a marker of the activity of the cyclooxygenases induced (COX-2) in cartilage from the proinflammatory stimulus represented by IL-1β.

[6] = tested on: zymosan-induced rat paw oedema; assay: Rat: anti-inflammatory activity on zymosan-induced paw oedema; type: in vivo; conditions: for % Diff. vs. control / Diff. vs. control: oedema; for % Diff. vs. control / Diff. vs. control / Oedema: oral; for Oedema: area under curve 0-24 h
Procedure: The anti-inflammatory activities of the test products have been assessed according to Di Rosa et al. [1971] on rat paw oedema induced by a subplantar injection of 4 mg di zymosan in 0.1 ml of isotonic saline. Paw volume has been measured pletismographically at 0, 1, 2, 4, 6 and 24 hours following the injection of zymosan, and expressed in ml of difference, with respect to the baseline volume. The test products, suspended in 5 ml/kg of 5% methylcellulose, have been administered with a gastric probe 30 minutes prior to the injection of zymosan. Celecoxib, a known COX-2 inhibitor, widely used clinically, and administered orally at a dose of 10 mg/kg, has been used as a reference standard. In order to express the treatment effects numerically, the areas under the curves of paw volume increase from 0 to 24 hours have been measured, thus giving the measurement of paw oedema in mlx24 hours.

[7] = tested on: zymosan-induced rat paw hyperalgesia; assay: Rat: analgesic activity (Randall and Selitto) on zymosan-induced paw hyperalgesia; type: in vivo; conditions: for % Diff. vs. control: analgesia; for % Diff. vs. control / Diff. vs. control / Analgesia: oral; for Diff. vs. control: difference of the Analgesia Δgx24h values; for Analgesia: area under analgesimetric curve 0-24 h
Procedure: The analgesic activities of the test products have been evaluated using the technique of Randall and Selitto [1957] on hyperalgesia induced in rat paw by a subplantar injection of 4 mg di zymosan in 0.1 ml of isotonic saline. The mechanical nociceptive threshold has been determined using an analgesimeter (Ugo Basile, Varese, Italy) at 0, 1, 2, 4, 6 and 24 hours following the injection of zymosan. The analgesimeter measures the weight (in grams) applied to the paw which causes the reflex retraction of the paw itself. The nociceptive threshold has been expressed as the difference (in grams) in nociceptive threshold at time 0. The test products have been administered orally 30 minutes prior to the injection of zymosan. Celecoxib, a known COX-2 inhibitor, widely used clinically as an analgesic-anti-inflammatory, and administered orally at a dose of 10 mg/kg, has been used as a reference standard. In order to express the treatment effects numerically, the areas under the curves of the analgesimetric weight increase on the inflamed paw have been measured from 0 to 24 hours, thus giving the measurement in g x 24 hours of the area under the analgesimetric curve.

[8] = tested on: tibial joint cartilage explants; assay: Rabbit cartilage explants: protection against IL-1β-induced cartilage degradation (GAG release); conditions: for %Diff. vs baseline: GAG release, protection positive
Procedure: The explants (2 x 2 mm) have been transferred to plates with wells and equilibrated for 48 hours at 37°C with high glucose DMEM plus 10% FCS and 50 µg/ml gentamycin. Explants have then been stimulated for 48 hours with 1 ng/ml IL-1β in aphenolic DMEM, 1 g/l glucose, 50 µg/ml gentamycin and 1% BSA. IL-1β elicits strong activation of the enzymes which depolymerise the proteoglycan aggregates of the cartilage matrix, resulting in its degradation, with the release of the breakdown products, mainly represented by the various glycosaminoglycans (GAG) making up the proteoglycan aggregates, into the culture liquid. […] In order to assess the effects of the test products on IL-1β-induced cartilage degradation, they have been added to the cartilage explants 20 minutes prior to stimulation with IL-1β. Cartilage degradation has been assessed by expressing the GAG released into the culture liquid as a percentage of the total GAG measured following complete digestion of the cartilage explants using papain.

[9] = 30 µM (Man, ASS as mangostin; ASS 30 = Man 30 + CGS 300)
[10] = 10 µM (Man, ASS as mangostin; ASS 10 = Man 10 + CGS 100)
[11] = 1 µM (Man, ASS as mangostin; ASS 1 = Man 1 + CGS 10)
[12] = oral doses of 40, 133 and 400 mg/kg

## N[C@H]1C(O)O[C@H](CO)[C@@H](O)[C@@H]1O.N[C@H]1C(O)O[C@H](CO)[C@@H](O)[C@@H]1O.O=S(=O)(O)O.[Cl-].[Cl-].[Na+].[Na+] (stereo partly drawn) [CGS, Crystalline Glucosamine Sulphate]
[1]; [9]
  IL-1: 4.65 ng/mL
[1]; 100 µM
  IL-1: 4.72 ng/mL
[1]; 300 µM
  IL-1: 4.69 ng/mL
[1]; IL-1, 30 µM (Man, ASS as mangostin; ASS 30 = Man 30 + CGS 300)
  %Diff. vs control: 2.1%
[1]; IL-1, 100 µM
  %Diff. vs control: 3.6%
[1]; IL-1, 300 µM
  %Diff. vs control: 3.1%
[1]; IL-1, up to a concentration of 300 µM
  inhibitory activity: no appreciable inhibitory activity
[2]; [9]
  TNFα: 14.70 ng/mL
[2]; 100 µM
  TNFα: 13.80 ng/mL
[2]; 300 µM
  TNFα: 12.70 ng/mL
[2]; TNFα, 30 µM (Man, ASS as mangostin; ASS 30 = Man 30 + CGS 300)
  %Diff. vs control: -7.9%
[2]; TNFα, 100 µM
  %Diff. vs control: -13.5%
[2]; TNFα, 300 µM
  %Diff. vs control: -20.4%
[2]; TNFα, Man/Eman and ASS as mangostin concentration
  IC50: > 300 µM
[2]; TNFα, even at concentrations of 300 µM
  inhibitory activity: weakly inhibitory
[3]; [10]
  TXB2: 124 ng/mL
  %Diff. vs control: 3.3%
[3]; 30 µM
  TXB2: 118 ng/mL
  %Diff. vs control: -1.7%
[3]; 100 µM
  TXB2: 125 ng/mL
  %Diff. vs control: 4.2%
[3]; Man 1, 3, 10, CGS 10, 30, 100 µM, Ass 1, 3, 10
  effect on the release of TXB2: no significant stimulatory or inhibitory activity
[4]; [10]
  PGE2: 22.7 ng/mL
[4]; 30 µM (ASS as mangostin; ASS 30 = Man 30 + CGS 300)
  PGE2: 24.3 ng/mL
[4]; 100 µM
  PGE2: 23.5 ng/mL
[4]; PGE2, 10 µM (Man, ASS as mangostin; ASS 10 = Man 10 + CGS 100)
  %Diff. vs control: -7.3%
[4]; PGE2, 30 µM (ASS as mangostin; ASS 30 = Man 30 + CGS 300)
  %Diff. vs control: -0.8%
[4]; PGE2, 100 µM
  %Diff. vs control: -4.1%
[4]; PGE2, concentrations of 10, 30 or 100 µM
  stimulatory or inhibitory activity: no significant stimulatory or inhibitory activity
[5]; [11]
  PGE2: 200 ng/mL
  %Diff. vs control: 6.4%
[5]; 3 µM (Man as mangostin)
  PGE2: 180 ng/mL
  %Diff. vs control: -4.3%
[5]; 10 µM
  PGE2: 210 ng/mL
  %Diff. vs control: -11.7%
[5]; PGE2, concentrations of 1, 3 or 10 µM
  inhibitory or stimulatory activity: no significant inhibitory or stimulatory activity
[6]; 40 mg/kg
  % Diff. vs. control: -1%
  Diff. vs. control: -0.1 mlx24 hours
  Oedema: 15.6 Δmlx24h
[6]; 133 mg/kg
  % Diff. vs. control: -2%
  Diff. vs. control: -0.3 mlx24 hours
  Oedema: 15.4 Δmlx24h
[6]; 400 mg/kg
  % Diff. vs. control: -4%
  Diff. vs. control: -0.6 mlx24 hours
  Oedema: 15.2 Δmlx24h
[6]; [12]
  anti-inflammatory activity: no significant anti-inflammatory activity
[7]; 40 mg/kg
  % Diff. vs. control: 1%
  Diff. vs. control: 7
  Analgesia: 1079 Δgx24h
[7]; 133 mg/kg
  % Diff. vs. control: -6%
  Diff. vs. control: -59
  Analgesia: 1012 Δgx24h
[7]; 400 mg/kg
  % Diff. vs. control: -4%
  Diff. vs. control: -46
  Analgesia: 1026 Δgx24h
[7]; [12]
  analgesic activity: no significant analgesic activity
[8]; 1 µM
  protection against IL-1β-induced cartilage degradation: 41%
[8]; [11]
  %GAG released: 41%
  %Diff. vs baseline: 40.6%
[8]; 3 µM
  %GAG released: 25%
  %Diff. vs baseline: 63.8%
[8]; 10 µM
  %GAG released: 16%
  %Diff. vs baseline: 76.8%
[8]; 3 mM CGS
  protection against IL-1β-induced cartilage degradation: 64%
[8]; 10 mM CGS
  protection against IL-1β-induced cartilage degradation: 77%
[8]; read-out: PC50, 50% protective concentration, ASS with reference to CGS
  EC50: 2300 nM
